20 molecules from patent publication US20260297070A1, “CYCLIC [COMPOUND LEFT OUT] WRN INHIBITORS” (Nimbus Wadjet, Inc., priority 2023, published 2026) can be followed below.

This assay deals with T1, human Werner helicase (WRN-BV08, Uniprot Q14191, amino acids 517-1235 with L1074F point mutation) (Homo sapiens, UniProt Q14191, L1074F).
T1 construct: Uniprot Q14191, amino acids 517-1235 with L1074F point mutation; TEV-cleavable 8×His (C, cleaved yes); made in house; host or cells: Sf9 insect cells (baculovirus)
T1 sequence (Q14191 with tags, fused parts or gaps L1074F limits assumed): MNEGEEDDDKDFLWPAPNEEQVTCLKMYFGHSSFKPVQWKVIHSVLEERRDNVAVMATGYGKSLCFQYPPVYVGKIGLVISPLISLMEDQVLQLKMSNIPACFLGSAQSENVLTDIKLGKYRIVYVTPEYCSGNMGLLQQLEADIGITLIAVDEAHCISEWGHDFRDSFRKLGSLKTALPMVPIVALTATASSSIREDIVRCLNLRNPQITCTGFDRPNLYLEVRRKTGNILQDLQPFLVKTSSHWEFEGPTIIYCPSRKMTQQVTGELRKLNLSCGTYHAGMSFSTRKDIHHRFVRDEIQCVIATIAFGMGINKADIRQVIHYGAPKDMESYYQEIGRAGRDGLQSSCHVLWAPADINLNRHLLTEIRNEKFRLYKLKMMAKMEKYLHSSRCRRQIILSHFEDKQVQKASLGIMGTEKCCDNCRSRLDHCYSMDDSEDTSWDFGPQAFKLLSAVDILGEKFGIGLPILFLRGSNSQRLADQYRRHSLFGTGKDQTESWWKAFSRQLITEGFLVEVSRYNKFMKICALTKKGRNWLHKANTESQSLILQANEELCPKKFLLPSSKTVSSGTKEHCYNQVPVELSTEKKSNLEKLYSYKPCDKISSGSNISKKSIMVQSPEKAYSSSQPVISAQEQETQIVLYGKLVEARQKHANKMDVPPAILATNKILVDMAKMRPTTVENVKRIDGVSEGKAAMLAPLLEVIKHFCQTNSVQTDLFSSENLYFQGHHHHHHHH
In words: WRN (BV08) ADP-Glo Assay. The class given is biochemical. To be noted: 0.15 nM WRN, 5 μM ATP, 0.1 nM DNA duplex, 15 min preincubation, 60 min at 25° C., pH 7.5, 1% DMSO; read-out: ADP-Glo_hWRN_IC50. In outline: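 ADP produced by WRN helicase fragment 517-1235 (L1074F, baculovirus/Sf9, untagged) read by ADP-Glo luminescence after 60 min at 25 °C with 5 μM ATP and 0.1 nM duplex DNA, following 15 min compound preincubation. Final enzyme 0.15 nM in Bicine pH 7.5 buffer, 1% DMSO; 20 μM NSC-617145 defined full inhibition.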
Background: In ADP-Glo the light output rises with the ADP produced.
`COc1cc(CN(C(=O)C(O/C=C/S(C)(=O)=O)c2ccc(-c3ccc(F)c(F)c3)cc2F)[C@@H]2C=CS(=O)(=O)C2)ccn1` (single isomer, unassigned) [I-804, (2R*)-N-[(3R)-1,1-dioxo-2,3-dihydro-1lambda6-thiophen-3-yl]-2-{[(1E)-2-methanesulfonylethenyl]oxy}-N-[(2-methoxypyridin-4-yl)methyl]-2-{3,3′,4′-trifluoro-[1,1′-biphenyl]-4-yl}acetamide]: the IC50 is below 500 nM. The result for `CC(C)(O)c1cc(CN(C(=O)C(OCC(F)(F)F)c2ccc(-c3ccc(F)c(F)c3)cc2F)[C@@H]2C=CS(=O)(=O)C2)ccn1` (single isomer, unassigned) [I-805] reads below 500 nM; that for `CC(C)(O)c1cc(CN(C(=O)C2CCCc3c(-c4cc(F)c(F)c(F)c4)cnn32)[C@@H]2C=CS(=O)(=O)C2)ccn1` (single isomer, unassigned) [I-806], 500 to 5000 nM; that for `CC(C)(O)c1cc(CN(C(=O)C(OCCC(F)F)c2ccc(-c3ccc(F)c(F)c3)cc2F)[C@@H]2C=CS(=O)(=O)C2)ccn1` (single isomer, unassigned) [I-812], below 500 nM. Next, `CC(C)(O)c1cc(CN(C(=O)C(OCC(F)F)c2ccc(-c3ccc(F)c(F)c3)cc2F)[C@@H]2C=CS(=O)(=O)C2)ccn1` (single isomer, unassigned) [I-813]: below 500 nM; `CC(C)(O)c1cc(CN(C(=O)C(OCc2ccccc2)c2ccc(-c3ccc(F)c(F)c3)cc2F)[C@@H]2C=CS(=O)(=O)C2)ccn1` (single isomer, unassigned) [I-814]: 500 to 5000 nM. Next, `CC(C)(O)c1cc(CN(C(=O)C(OCC2CC2)c2ccc(-c3ccc(F)c(F)c3)cc2F)[C@@H]2C=CS(=O)(=O)C2)ccn1` (single isomer, unassigned) [I-815]: below 500 nM; `CC(C)(O)c1cc(CN(C(=O)Cn2nc(-c3cc(F)c(F)c(F)c3)cc2N)C2C=CS(=O)(=O)C2)ccn1` (single isomer, unassigned) [I-821]: 500 to 5000 nM. As for `COc1cc(C(C)N(C(=O)Cn2cc(-c3cc(F)c(F)c(F)c3)cn2)C2C=CS(=O)(=O)C2)ccn1` (single isomer, unassigned) [I-828, N-[(3R**)-1,1-dioxo-2,3-dihydro-1lambda6-thiophen-3-yl]-N-[(1R*)-1-(2-methoxypyridin-4-yl)ethyl]-2-[4-(3,4,5-trifluorophenyl)-1H-pyrazol-1-yl]acetamide], the IC50 lay in the range of 500 to 5000 nM.

On to `COc1cc(C(C)N(C(=O)Cn2cc(-c3cc(F)c(F)c(F)c3)cn2)C2C=CS(=O)(=O)C2)ccn1` (single isomer, unassigned) [I-830, N-[(3R**)-1,1-dioxo-2,3-dihydro-1lambda6-thiophen-3-yl]-N-[(1R*)-1-(2-methoxypyridin-4-yl)ethyl]-2-[4-(3,4,5-trifluorophenyl)-1H-pyrazol-1-yl]acetamide], for which the IC50 lay in the range of 5000 to 10000 nM. Take `COc1cc(C(C)N(C(=O)Cn2cc(-c3cc(F)c(F)c(F)c3)cn2)C2C=CS(=O)(=O)C2)ccn1` (single isomer, unassigned) [I-831, N-[(3R**)-1,1-dioxo-2,3-dihydro-1lambda6-thiophen-3-yl]-N-[(1R*)-1-(2-methoxypyridin-4-yl)ethyl]-2-[4-(3,4,5-trifluorophenyl)-1H-pyrazol-1-yl]acetamide]: the IC50 lay in the range of 500 to 5000 nM. As for `COc1cc(CN(C(=O)C(OC2CS(=O)(=O)C2)c2ccc(-c3ccc(F)c(F)c3)cc2F)[C@@H]2C=CS(=O)(=O)C2)ccn1` (single isomer, unassigned) [I-834, (2R*)-2-[(1,1-dioxo-1lambda6-thietan-3-yl)oxy]-N-[(3R)-1,1-dioxo-2,3-dihydro-1lambda6-thiophen-3-yl]-N-[(2-methoxypyridin-4-yl)methyl]-2-{3,3′,4′-trifluoro-[1,1′-biphenyl]-4-yl}acetamide], the IC50 is above 50000 nM. Regarding `COc1cc(CN(C(=O)C(OC2CS(=O)(=O)C2)c2ccc(-c3ccc(F)c(F)c3)cc2F)[C@@H]2C=CS(=O)(=O)C2)ccn1` (single isomer, unassigned) [I-835, (2R*)-2-[(1,1-dioxo-1lambda6-thietan-3-yl)oxy]-N-[(3R)-1,1-dioxo-2,3-dihydro-1lambda6-thiophen-3-yl]-N-[(2-methoxypyridin-4-yl)methyl]-2-{3,3′,4′-trifluoro-[1,1′-biphenyl]-4-yl}acetamide], the IC50 was 5000 to 10000 nM. The result for `Cc1cccn1-c1ccc(CC(=O)N(Cc2ccc(C(=O)N(C)Cc3cn(Cc4ccc(NC(=O)CCOCCOCCOCCOCCNC(=O)CCCC[C@@H]5SC[C@@H]6NC(=O)N[C@@H]65)cn4)nn3)cc2)C2C=CS(=O)(=O)C2)c(F)c1` (single isomer, unassigned) [II-1] reads 500 to 5000 nM; that for `CC(C)(O)c1cc(CN(C(=O)C(OCC2CC(F)(F)C2)c2ccc(-c3ccc(F)c(F)c3)cc2F)[C@@H]2C=CS(=O)(=O)C2)ccn1` (stereo in doubt) [I-792, rel-2-[(3,3-difluorocyclobutyl)methoxy]-N-[(3R)-1,1-dioxo-2,3-dihydro-1lambda6-thiophen-3-yl]-N-{[2-(2-hydroxypropan-2-yl)pyridin-4-yl]methyl}-2-{3,3′,4′-trifluoro-[1,1′-biphenyl]-4-yl}acetamide], 500 to 5000 nM. Turning to `CNC(=O)C(C(=O)N(Cc1ccnc(C(C)(C)O)c1)[C@@H]1C=CS(=O)(=O)C1)c1ccc(-c2ccc(F)c(F)c2)cc1F` (some centres unmarked) [I-3, N1-(1,1-dioxido-2,3-dihydrothiophen-3-yl)-N1-((2-(2-hydroxypropan-2-yl)pyridin-4-yl)methyl)-N3-methyl-2-(3,3′,4′-trifluoro-[1,1′-biphenyl]-4-yl)malonamide], the IC50 was below 500 nM. In the case of `CC(C)(O)c1cc(CN(C(=O)Cn2cc(-c3ccc(F)c(F)c3)cn2)[C@@H]2C=CS(=O)(=O)C2)ccn1` [I-6, (R)-2-(4-(3,4-difluorophenyl)-1H-pyrazol-1-yl)-N-(1,1-dioxido-2,3-dihydrothiophen-3-yl)-N-((2-(2-hydroxypropan-2-yl)pyridin-4-yl)methyl)acetamide], the IC50 is below 500 nM. Next, `CC(C)(O)c1cc(CN(C(=O)Cn2cc3cc(S(F)(F)(F)(F)F)ccc3n2)[C@@H]2C=CS(=O)(=O)C2)ccn1` [I-7, (R)—N-(1,1-dioxido-2,3-dihydrothiophen-3-yl)-N-((2-(2-hydroxypropan-2-yl)pyridin-4-yl)methyl)-2-(5-(pentafluoro-λ^6-sulfaneyl)-2H-indazol-2-yl)acetamide]: below 500 nM. Next, `COc1cc(CN(C(=O)[C@H](C(=O)N(C)C)c2ccc(-c3ccc(F)cc3)cc2F)[C@@H]2C=CS(=O)(=O)C2)ccn1` [I-9, (2S)-2-{3,4′-difluoro-[1,1′-biphenyl]-4-yl}-N-[(3R)-1,1-dioxo-2,3-dihydro-1lambda6-thiophen-3-yl]-N-[(2-methoxypyridin-4-yl)methyl]-N′,N′-dimethylpropanediamide]: below 500 nM; `CC(C)(O)c1cc(CN(C(=O)Cn2ccc(-c3ccc(F)c(F)c3)cc2=O)[C@@H]2C=CS(=O)(=O)C2)ccn1` [I-13, (R)-2-(4-(3,4-difluorophenyl)-2-oxopyridin-1(2H)-yl)-N-(1,1-dioxido-2,3-dihydrothiophen-3-yl)-N-((2-(2-hydroxypropan-2-yl)pyridin-4-yl)methyl)acetamide]: below 500 nM.
